Values of other authors in patent publication US6403120B1 (Wyeth, priority 1996, dated 2002).

Conditions: plural daily dosing regimen

patients experiencing nausea: about forty five | patients with vomiting: about seventeen
Compound: COc1ccc(C(CN(C)C)C2(O)CCCCC2)cc1.Cl (centres unmarked) [venlafaxine hydrochloride, 1-[2-(dimethylamino)-1-(4methoxyphenyl)ethyl]cyclohexanol hydrochloride]
